Key:
[1] = tested on: TRAP activity in RAW 264.7 monocyte-macrophage cells differentiated into OCL; assay: Fluorescent per-well TRAP activity assay in RAW cells differentiated into OCL; type: cell-based; conditions: for Effect on TRAP activity: day 6; for Effect on detection of TRAP fluorescence: up to 10.0 uM; for Effect on detection of TRAP fluorescence / Compound amount at which decrease of TRAP fluorescence is maximal / Compound amount at which dramatic decrease of TRAP fluorescence starts / Inhibition of TRAP activity (result in words): day 6, FIG. 4; for Inhibition of TRAP activity (result in words): IC50's comparable to previously published data
Procedure: (§1) RAW (RAW 264.7 monocyte-macrophage) RAW (ATTC, Manassas, Va.) cells were maintained in culture using DMEM (Dulbecco's Modified Eagle Medium) media containing L-glutamine at 584 mg/L, 1% penicillin/streptomycin, and 10% FBS (fetal bovine serum). For osteoclast differentiation RAW cells were put down onto 96 well plates at a density of 1,000 cells per well in alpha MEM (Minimum Essential Medium) media containing L-glutamine at 292 mg/L, 1% penicillin/streptomycin, 10% FBS, soluble RANKL (PeproTech, Rocky Hill, N.J.) at 10 ng/ml, and M-CSF (Cell Sciences, Norwood, Mass.) at 25 ng/ml. All media were changed every two days. For experiments with compounds, the compounds were added at the time of plating the cells in differentiation media. Additionally compounds were replenished during every media change leading up to the day 6 termination of the experiment.
(§2) Media was removed and cells were fixed onto their plated surface with 4% formaldehyde (Sigma, Saint Louis, Mo.) in PBS (Phosphate Buffer Saline) solution for 20 minutes. After fixing, cells were permeablized in PBS with 0.1% Tween (Sigma, Saint Louis, Mo.) for 15 minutes. Cells were then incubated with 200 uM of ELF 97 phosphatase substrate (Molecular Probes, Eugene, Oreg.) for 15 minutes in a 3.4 mM acetate buffered solution (pH 5.0) containing 6.7 mM Tartrate (Sigma, Saint Louis, Mo.). These conditions (of slightly acidic pH and high concentrations of tartrate) discriminate TRAP activity from other phosphatases. Cells were then washed twice with PBS (pH 7.4). After the final wash, plates were immediately quantified for TRAP activity.
(§3) Quantification of TRAP TRAP activity per well was quantified on a SpetraFluor Plus (Tecan, Research Triangle Park, N.C.) using an excitation of 360 nm and an emission of 550 nm using the optimal gain function. For quantification of the number of OCL, PI (propidium iodide) (Sigma, Saint Louis, Mo.) at a final concentration of 10 ug/ml was added to the TRAP stained cells to nonspecifically stain the cells. After PI staining the 96 well plates were analyzed using an ArrayScanII (Cellomics, Pittsburgh, Pa.) on the Nuclear Translocation software. In this Nuclear Translocation software analysis, the cytoplasmic image area is not used while the nuclear image area is expanded to encompass the entire PI stained cellular area. Cell size selection was performed through nuclear size selection criteria within Channel 1 of the Nuclear Translocation software package. TRAP intensity selection was performed through total fluorescence intensity utilizing Channel 2.

[2] = tested on: OCL differentiated from RAW 264.7 monocyte-macrophage cells; assay: Automated OCL counting assay (size and TRAP-intensity selected cells, ArrayScan); type: cell-based; conditions: day 6, FIG. 5
Procedure: as §1, §2, §3
The determination of differentiation into OCL is typically based upon morphological criteria along with staining for TRAP. […] Therefore, basing differentiation solely upon per well TRAP activity could lead to a false positive reading. To circumvent this limitation we developed an automated approach to quantify the number of OCL based upon the size of the cells in addition to TRAP activity. Due to the limitations of the software analyses, the size of the cells were used in place of number of nuclei as a selection criteria for OCL formation. The size of the cells typically correlates with cell fusion and the number of nuclei. Also while some single nucleated cells can also be large in size, these cells typically tend not to be TRAP positive. The data capture was performed using the Cellomics ArrayScan 11, which is an automated fluorescent microscope and plate handler. The data analyses were performed by using the Cellomic's “Nuclear Translocation” imaging analysis software.

OCL formation = conditions: previously published data (Matsumoto 2000; Kumar 2001); read-out: IC50 of dose dependent inhibition of OCL formation; cited from earlier work

Row | SMILES | Effect on TRAP activity [1] | Effect on detection of TRAP fluorescence [1] | Effect on number of TRAP positive cells counted ([2]; at 10.0 uM) | Effect on the number of OCL [2] | Compound amount at which decrease of TRAP fluorescence is maximal [1] | Compound amount at which dramatic decrease of TRAP fluorescence starts [1] | Inhibition of TRAP activity (result in words) [1] | IC50 (OCL formation) | Compound amount at which decrease in quantity of TRAP positive cells counted starts [2] | Concentration at which decrease in TRAP positive cells counted is maximal (near zero amounts) [2]
1 | COc1cccc(-c2cc(=O)c3ccccc3o2)c1N [PD98059] | little effect | did not significantly inhibit | no significant decrease | little effect | – | – | – | – | – | –
2 | Oc1ccc(-c2nc(-c3ccc(F)cc3)c(-c3ccncc3)[nH]2)cc1 [SB202190] | – | – | – | – | 10.0 µM | 1.0 µM | dose dependent inhibition of TRAP activity | 1000 nM | – | –
3 | C[S+]([O-])c1ccc(-c2nc(-c3ccc(F)cc3)c(-c3ccncc3)[nH]2)cc1 (stereo not drawn) [SB203580] | – | – | – | – | 10.0 µM | 1.0 µM | dose dependent inhibition of TRAP activity | – | 0.3 µM | 10.0 µM
4 | CCc1nc(-c2ccc(OC)cc2)[nH]c1-c1ccncc1 [SB202474] | little effect | did not significantly inhibit | – | little effect | – | – | – | – | 0.3 µM | 10.0 µM
